Data on 19 molecules can be found in US20250346592A1 (Celgene Corporation, priority 2022, published 2025).

pIC50: −log10 of the molar value.

This assay has as its target hPAD4 enzyme (Homo sapiens (Human), UniProt Q9UM07). Put plainly: RFMS2 assay (RapidFire mass spectrometry, TSTGGRQGSHH peptide substrate). It is filed as biochemical. The settings on record: 35 nM recombinant human PAD4, 500 μM TSTGGRQGSHH peptide, 30 minutes at room temperature; read-out: RFMS 2 IC50. The method in brief: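 IC50 derived from RapidFire LC-MS/MS (positive ESI MRM) of substrate versus product after a 30 min room-temperature reaction stopped with 10% formic acid. Reaction contained 35 nM human PAD4, 500 μM peptide, 2 mM CaCl2, 5 mM DTT at pH 7.4, and compounds diluted 3-fold from 20 μM.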

Chain of hPAD4 enzyme (Q9UM07 whole entry): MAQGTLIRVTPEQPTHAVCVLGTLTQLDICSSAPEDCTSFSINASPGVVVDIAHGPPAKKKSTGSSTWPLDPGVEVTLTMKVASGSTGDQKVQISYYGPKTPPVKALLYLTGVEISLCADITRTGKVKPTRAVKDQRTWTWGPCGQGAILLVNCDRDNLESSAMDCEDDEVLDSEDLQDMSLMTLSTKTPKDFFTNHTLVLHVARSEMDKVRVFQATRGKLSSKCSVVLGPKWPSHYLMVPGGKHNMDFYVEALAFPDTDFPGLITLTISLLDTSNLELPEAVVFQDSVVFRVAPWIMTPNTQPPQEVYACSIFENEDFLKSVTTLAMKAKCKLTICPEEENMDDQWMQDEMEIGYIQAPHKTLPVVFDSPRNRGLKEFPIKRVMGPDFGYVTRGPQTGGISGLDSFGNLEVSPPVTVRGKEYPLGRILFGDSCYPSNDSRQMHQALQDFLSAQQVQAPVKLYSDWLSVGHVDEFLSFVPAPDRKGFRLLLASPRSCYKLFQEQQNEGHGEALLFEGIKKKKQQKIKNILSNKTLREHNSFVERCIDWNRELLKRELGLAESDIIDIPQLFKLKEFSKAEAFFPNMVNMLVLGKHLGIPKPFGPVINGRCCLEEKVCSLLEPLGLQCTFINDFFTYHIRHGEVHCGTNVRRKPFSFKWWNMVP

As to `C[C@@H](CCO)Oc1cccc2cc(-c3nc4cc5c(cc4n3C)CCN(C[C@H](N)CF)C5=O)n(CC3CC3)c12` [Example 191, 6-((S)-2-amino-3-fluoropropyl)-2-(1-(cyclopropylmethyl)-7-(((S)-4-hydroxybutan-2-yl)oxy)-1H-indol-2-yl)-1-methyl-1,6,7,8-tetrahydro-5H-imidazo[4,5-g]isoquinolin-5-one], the negative-log IC50 (pIC50) was 6.30 to 7.00.

For `C[C@H](CCO)Oc1cccc2cc(-c3nc4cc5c(cc4n3C)CCN(C[C@H](N)CF)C5=O)n(CC3CC3)c12` [Example 192, 6-((S)-2-amino-3-fluoropropyl)-2-(1-(cyclopropylmethyl)-7-(((R)-4-hydroxybutan-2-yl)oxy)-1H-indol-2-yl)-1-methyl-1,6,7,8-tetrahydro-5H-imidazo[4,5-g]isoquinolin-5-one], the pIC50 is 6.30 to 7.00.

For the molecule `Cn1c(-c2cc3cccc(OCc4cn[nH]c4)c3n2CC2CC2)nc2cc3c(cc21)CCN(C[C@H](N)CF)C3=O` [Example 193, (S)-2-(7-((1H-pyrazol-4-yl)methoxy)-1-(cyclopropylmethyl)-1H-indol-2-yl)-6-(2-amino-3-fluoropropyl)-1-methyl-1,6,7,8-tetrahydro-5H-imidazo[4,5-g]isoquinolin-5-one], the pIC50 was 7.00 to 7.96.

Regarding `Cn1c(-c2cc3cccc(OCCc4cnco4)c3n2CC2CC2)nc2cc3c(cc21)CCN(C[C@H](N)CF)C3=O` [Example 194, (S)-6-(2-amino-3-fluoropropyl)-2-(1-(cyclopropylmethyl)-7-(2-(oxazol-5-yl)ethoxy)-1H-indol-2-yl)-1-methyl-1,6,7,8-tetrahydro-5H-imidazo[4,5-g]isoquinolin-5-one], the pIC50 is 7.00 to 7.96.

For `Cn1c(-c2cc3cccc(OCCc4cocn4)c3n2CC2CC2)nc2cc3c(cc21)CCN(C[C@H](N)CF)C3=O` [Example 196, (S)-6-(2-amino-3-fluoropropyl)-2-(1-(cyclopropylmethyl)-7-(2-(oxazol-4-yl)ethoxy)-1H-indol-2-yl)-1-methyl-1,6,7,8-tetrahydro-5H-imidazo[4,5-g]isoquinolin-5-one], the pIC50 was 6.30 to 7.00.

Regarding `CC(Oc1cccc2cc(-c3nc4cc5c(cc4n3C)CCN(C[C@H](N)CF)C5=O)n(CC3CC3)c12)c1ccno1` (stereo partly drawn) [Example 197, 6-((S)-2-amino-3-fluoropropyl)-2-(1-(cyclopropylmethyl)-7-(1-(isoxazol-5-yl)ethoxy)-1H-indol-2-yl)-1-methyl-1,6,7,8-tetrahydro-5H-imidazo[4,5-g]isoquinolin-5-one], the pIC50 is 6.30 to 7.00.

Take `COC(=O)NC[C@@H](C)Oc1cccc2cc(-c3nc4cc5c(cc4n3C)CCN(C[C@H](N)CF)C5=O)n(CC3CC3)c12` [Example 200, methyl ((R)-2-((2-(6-((S)-2-amino-3-fluoropropyl)-1-methyl-5-oxo-5,6,7,8-tetrahydro-1H-imidazo[4,5-g]isoquinolin-2-yl)-1-(cyclopropylmethyl)-1H-indol-7-yl)oxy)propyl)carbamate]: the negative logarithm of the IC50 (pIC50) was 6.30 to 7.00.

`COC(=O)NC[C@H](C)Oc1cccc2cc(-c3nc4cc5c(cc4n3C)CCN(C[C@H](N)CF)C5=O)n(CC3CC3)c12` [Example 202, methyl ((S)-2-((2-(6-((S)-2-amino-3-fluoropropyl)-1-methyl-5-oxo-5,6,7,8-tetrahydro-1H-imidazo[4,5-g]isoquinolin-2-yl)-1-(cyclopropylmethyl)-1H-indol-7-yl)oxy)propyl) carbamate]: the negative-log IC50 (pIC50) was 6.30 to 7.00.

With `Cn1c(-c2cc3cccc(OCCc4cc[nH]c4)c3n2CC2CC2)nc2cc3c(cc21)CCN(C[C@H](N)CF)C3=O` [Example 203], the pIC50 is 6.30 to 7.00.

As for `COC(=O)N[C@H](C)COc1cccc2cc(-c3nc4cc5c(cc4n3C)CCN(C[C@H](N)CF)C5=O)n(CC3CC3)c12` [Example 209, methyl ((R)-1-((2-(6-((S)-2-amino-3-fluoropropyl)-1-methyl-5-oxo-5,6,7,8-tetrahydro-1H-imidazo[4,5-g]isoquinolin-2-yl)-1-(cyclopropylmethyl)-1H-indol-7-yl)oxy)propan-2-yl) carbamate], the negative logarithm of the IC50 (pIC50) is 6.00 to 6.30.

Consider `CNC(=O)OCCOc1cccc2cc(-c3nc4cc5c(cc4n3C)CCN(C[C@H](N)CF)C5=O)n(CC3CC3)c12` [Example 211, (S)-2-((2-(6-(2-amino-3-fluoropropyl)-1-methyl-5-oxo-5,6,7,8-tetrahydro-1H-imidazo[4,5-g]isoquinolin-2-yl)-1-(cyclopropylmethyl)-1H-indol-7-yl)oxy)ethyl methylcarbamate], for which the pIC50 is 6.30 to 7.00.

As to `Cn1c(-c2cc3cccc(OCC(C)(C)O)c3n2CC2CC2)nc2cc3c(cc21)CCN(C[C@H](N)CF)C3=O` [Example 214, (S)-6-(2-amino-3-fluoropropyl)-2-(1-(cyclopropylmethyl)-7-(2-hydroxy-2-methylpropoxy)-1H-indol-2-yl)-1-methyl-1,6,7,8-tetrahydro-5H-imidazo[4,5-g]isoquinolin-5-one], the negative-log IC50 (pIC50) is 6.00 to 6.30.

For the molecule `Cn1c(-c2cc3cccc(OC[C@@H](O)C(F)(F)F)c3n2CC2CC2)nc2cc3c(cc21)CCN(C[C@H](N)CF)C3=O` [Example 215, 6-((S)-2-amino-3-fluoropropyl)-2-(1-(cyclopropylmethyl)-7-((R)-3,3,3-trifluoro-2-hydroxypropoxy)-1H-indol-2-yl)-1-methyl-1,6,7,8-tetrahydro-5H-imidazo[4,5-g]isoquinolin-5-one], the pIC50 was 6.30 to 7.00.

As for `Cn1c(-c2cc3cccc(OC[C@H](O)C(F)(F)F)c3n2CC2CC2)nc2cc3c(cc21)CCN(C[C@H](N)CF)C3=O` [Example 216, 6-((S)-2-amino-3-fluoropropyl)-2-(1-(cyclopropylmethyl)-7-((S)-3,3,3-trifluoro-2-hydroxypropoxy)-1H-indol-2-yl)-1-methyl-1,6,7,8-tetrahydro-5H-imidazo[4,5-g]isoquinolin-5-one], the negative-log IC50 (pIC50) was 6.30 to 7.00.

For the molecule `Cn1c(-c2cc3cccc(OCCO)c3n2Cc2ccno2)nc2cc3c(cc21)CCN(C[C@H](N)CF)C3=O` [Example 218, (S)-6-(2-amino-3-fluoropropyl)-2-(7-(2-hydroxyethoxy)-1-(isoxazol-5-ylmethyl)-1H-indol-2-yl)-1-methyl-1,6,7,8-tetrahydro-5H-imidazo[4,5-g]isoquinolin-5-one], the pIC50 is 6.30 to 7.00.

Regarding `Cn1c(-c2cc3cccc(OCC4CCNC4=O)c3n2CC2CC2)nc2cc3c(cc21)CCN(C[C@H](N)CF)C3=O` (stereo partly drawn) [Example 219, 6-((S)-2-amino-3-fluoropropyl)-2-(1-(cyclopropylmethyl)-7-((2-oxopyrrolidin-3-yl)methoxy)-1H-indol-2-yl)-1-methyl-1,6,7,8-tetrahydro-5H-imidazo[4,5-g]isoquinolin-5-one], the pIC50 is 6.30 to 7.00.

As for `Cn1c(-c2cc3cccc(OCCn4cnc(C#N)n4)c3n2CC2CC2)nc2cc3c(cc21)CCN(C[C@H](N)CF)C3=O` [Example 224, (S)-1-(2-((2-(6-(2-amino-3-fluoropropyl)-1-methyl-5-oxo-5,6,7,8-tetrahydro-1H-imidazo[4,5-g]isoquinolin-2-yl)-1-(cyclopropylmethyl)-1H-indol-7-yl)oxy)ethyl)-1H-1,2,4-triazole-3-carbonitrile], the negative-log IC50 (pIC50) was 6.30 to 7.00.

As for `Cn1c(-c2cc3cccc(OCCn4ncnc4C#N)c3n2CC2CC2)nc2cc3c(cc21)CCN(C[C@H](N)CF)C3=O` [Example 225, (S)-1-(2-((2-(6-(2-amino-3-fluoropropyl)-1-methyl-5-oxo-5,6,7,8-tetrahydro-1H-imidazo[4,5-g]isoquinolin-2-yl)-1-(cyclopropylmethyl)-1H-indol-7-yl)oxy)ethyl)-1H-1,2,4-triazole-5-carbonitrile], the pIC50 is less than 6.00.

Consider `COc1ccc2cc(-c3nc4cc5c(c(F)c4n3C)CCN(C[C@H](N)CF)C5=O)n(CC3CC3)c2c1` [Example 239, (S)-6-(2-amino-3-fluoropropyl)-2-(1-(cyclopropylmethyl)-6-methoxy-1H-indol-2-yl)-9-fluoro-1-methyl-1,6,7,8-tetrahydro-5H-imidazo[4,5-g]isoquinolin-5-one], for which the pIC50 is 6.00 to 6.30.
